# Reference: US20250295679A1, “Compositions and Dosage Forms for Treatment of HPV Infection and HPV-Induced Neoplasia” (priority 2022, published 2025)
# Like-named read-outs stand apart in the source and are kept apart here.
# Tests used:
# [1] = Solubility in buffers, water and simulated vaginal fluid at 37° C.
# Description: About 4 mg of Compound I Pattern 1 was added into 2 mL of buffer solution.
# (§1) Solubility was tested in five media, pH 3.0 citrate buffer, pH 4.5 acetate buffer, pH 6.8 phosphate buffer, water, simulated vaginal fluid (pH 4.2) at 37° C. for 0.5 h and 2 h.
# The salt amount used is equivalent to 10 mg anhydrous free base. […] The obtained clear solutions were analyzed by pH meter for pH, and solubility was determined by observation.
# as §1
# [2] = Hygroscopicity by DVS at 25° C.; assay type: physicochemical; conditions: for Desorption (%) Cycle 1 / Desorption (%) Cycle 2 / Sorption (%) Cycle 1 / Sorption (%) Cycle 2 / Water uptake / Desorp. (%) Cycle 1 / Desorp. (%) Cycle 2 / Sorp. (%) Cycle 1 / Sorp. (%) Cycle 2: DVS 25° C.; for XRPD after DVS test: 25° C.; for Water uptake: up to / in 95% RH
# Description: Hygroscopicity was investigated by DVS at 25° C., using the following method: • Method: 40-0-95-0-40% RH, dm/dt=0.002
# [3] = Bulk (accelerated) stability, one week, HPLC and XRPD; conditions: for HPLC purity, Initial: initial chemical purity before storage; for Bulk (HPLC) Purity / Bulk Color: 1 week
# Description: Bulk stability: Accelerated stability experiments were conducted at 25° C./92% RH and 40° C./75% RH in an open container, 60° C. in a tight container for one week.
# Samples were characterized by XRPD and HPLC and inspected for color change.
# Accelerated stability experiments were conducted at 25° C./92% RH in an open container, at 40° C./75% RH in an open container, and at 60° C. in a tight container for one week.
# [4] = Ex vivo permeation and penetration across porcine vaginal tissue (Franz diffusion cell, IVPT); assay type: in vitro ADME; parameters: Concentration in vaginal tissue: unit not given here; conditions: for Tissue penetration: porcine vaginal tissue, 0.1% Compound II gel, 1% and 3% ABI-1968 formulations
# Text: FIG. 116 is an in vitro tissue permeation test in vaginal tissue comparing Compound II to ABI-1968. […] Bars B and C show the tissue penetration of a 0.1% Compound II gel in human cervical tissue. […] This may be a contributing factor to the performance of ABI-1968 in clinical studies. […] This is described in Example 41.
# Freshly harvested porcine vaginal tissue was procured from local slaughterhouse in an ice box. The vaginal tissue was cut open to expose the mucosal surface and tissue was cleaned by gentle flow of PBS pH 7.4. The porcine vaginal tissue was cut into circular portions (approximately 2 cm^2) with help of a […] punch.
# The circular portion of tissue was sandwiched between two chambers of a Franz diffusion cell with an active diffusion area of 1 cm^2, and the mucosal layer was exposed to the donor chambers. The resistance across porcine vaginal tissue was measured using a wave form generator to ensure the integrity of the tissue segment used for the permeation study. Porcine vaginal tissue with resistance of ≥3 KΩ·cm^2 was used for study. The receiver chamber was filled with 8 ml of 5% solutol PBS 7.4 pH, which was stirred at 600 rpm with a 3 mm magnetic stir bar and the temperature was maintained at 37° C. with a circulating water bath.
# The ˜200 mg of gel was filled into tared 1 mL syringe and gel was dispensed to donor chamber. The gel was spread on to mucosal surface with pre weighed applicator. After loading and spreading of the gel onto surface of mucosal surface, the weight of 1 mL syringe and applicator was noted to determine the exact amount of gel loaded into donor chamber.
# Time course (2 h, 4 h and 8 h) porcine vaginal permeation studies were performed. After loading gel, 500 μL samples were withdrawn from the receiver compartment at different time intervals and each time an equal volume of fresh receiver media was used to replace withdrawn samples. The sample withdrawn at each time interval were stored immediately in −20° C. until analysis. After 2, 4 and 8 h, the formulation was removed from the donor chamber with help of syringe and cleaned with cotton swab. The tissue was removed and washed gently with wash solution (50% methanol in water) 5 times and alternatively cleaning with cotton swab.
# An 8 mm punch of active diffusion area of washed porcine vaginal tissue was removed, weighed and transferred into a tube. This tube was immediately placed into dry ice for ˜15 min. After specified time, tissue was removed and placed in precooled dish. The tissue was minced into smaller pieces on a dish with a precooled surgical blade. The minced tissue was transferred to sample tubes and dish was rinsed with 1 ml of 5% solutol in PBS 7.4 pH and transferred to same tissue sample tube. These tubes were stored in −70° C. until analysis. […]
# [5] = Polymorph screening by equilibration in solvents; assay type: physicochemical
# [6] = 25° C., 92% RH, open container, one week
# [7] = BS1: solid state, 25° C./92% RH, open container
# [8] = BS2: solid state, 40° C./75% RH, open container
# [9] = BS3: solid state, 60° C., tight container
smiles,measurement,setting,value
CCOC(=O)C(C)NP(=O)(COCCn1cnc2c(OC)nc(N)nc21)OCc1ccccc1.CCOC(=O)C(C)NP(=O)(COCCn1cnc2c(OC)nc(N)nc21)OCc1ccccc1.O=C(O)C=CC(=O)O (mixture of isomers) [Compound I hemifumarate],Solubility 0.5 hrs,[1],>2000 µg/mL
same,Solubility 2 hrs,[1],>2000 µg/mL
same,Solubility 0.5 hrs,[1]; pH 3,>2000 µg/mL
same,Solubility 2 hrs,[1]; pH 3,>2000 µg/mL
same,Solubility 0.5 hrs,[1]; pH 4.2,>2000 µg/mL
same,Solubility 2 hrs,[1]; pH 4.2,>2000 µg/mL
same,Solubility 0.5 hrs,[1]; pH 4.5,>2000 µg/mL
same,Solubility 2 hrs,[1]; pH 4.5,>2000 µg/mL
same,Solubility 0.5 hrs,[1]; pH 6.8,>2000 µg/mL
same,Solubility 2 hrs,[1]; pH 6.8,>2000 µg/mL
same,pH at 2 hrs,"[1]; solution in simulated vaginal fluid (pH adjusted with 0.2N NaOH), 37° C.",(5.30)
same,Desorption (%) Cycle 1,[2]; 0% RH,0.13%
same,Desorption (%) Cycle 2,[2]; 0% RH,0.00%
same,Sorption (%) Cycle 1,[2]; 0% RH,0.13%
same,Sorption (%) Cycle 2,[2]; 0% RH,0.00%
same,Desorption (%) Cycle 1,[2]; 10% RH,0.36%
same,Desorption (%) Cycle 2,[2]; 10% RH,0.23%
same,Sorption (%) Cycle 1,[2]; 10% RH,0.34%
same,Sorption (%) Cycle 2,[2]; 10% RH,0.20%
same,Desorption (%) Cycle 1,[2]; 20% RH,0.56%
same,Desorption (%) Cycle 2,[2]; 20% RH,0.44%
same,Sorption (%) Cycle 1,[2]; 20% RH,0.53%
same,Sorption (%) Cycle 2,[2]; 20% RH,0.40%
same,Desorption (%) Cycle 1,[2]; 30% RH,0.79%
same,Desorption (%) Cycle 2,[2]; 30% RH,0.68%
same,Sorption (%) Cycle 1,[2]; 30% RH,0.73%
same,Sorption (%) Cycle 2,[2]; 30% RH,0.61%
same,Desorption (%) Cycle 1,[2]; 40% RH,1.04%
same,Desorption (%) Cycle 2,[2]; 40% RH,0.94%
same,Sorption (%) Cycle 1,[2]; 40% RH,0.96%
same,Sorption (%) Cycle 2,[2]; 40% RH,0.87%
same,Desorption (%) Cycle 2,[2]; 50% RH,1.26%
same,Sorption (%) Cycle 1,[2]; 50% RH,1.22%
same,Desorption (%) Cycle 2,[2]; 60% RH,1.68%
same,Sorption (%) Cycle 1,[2]; 60% RH,1.57%
same,Desorption (%) Cycle 2,[2]; 70% RH,2.25%
same,Sorption (%) Cycle 1,[2]; 70% RH,2.04%
same,Desorption (%) Cycle 2,[2]; 80% RH,3.14%
same,Sorption (%) Cycle 1,[2]; 80% RH,2.80%
same,Desorption (%) Cycle 2,[2]; 90% RH,4.84%
same,Sorption (%) Cycle 1,[2]; 90% RH,4.54%
same,Desorption (%) Cycle 2,[2]; 95% RH,6.87%
same,Sorption (%) Cycle 1,[2]; 95% RH,6.87%
same,XRPD after DVS test,[2]; after humidity cycle 40-0-95-0-40% RH,"No form change,"
same,Water uptake,[2],~6.9%
same,HPLC purity after storage,[3]; [6],97.0%
same,XRPD after storage,[3]; [6],No change
same,HPLC purity after storage,"[3]; 40° C., 75% RH, open container, one week",90.9%
same,HPLC purity after storage,"[3]; 60° C., tight container, one week",82.3%
same,"HPLC purity, Initial",[3]; listed as Compound I Hemifumarate Pattern 1,97.8%
same,"HPLC purity, Initial",[3]; listed as Compound I hemifumarate Pattern 1,97.8%
CCCCCCCCCCCCCCCCCCOCCOP(=O)(COCCn1cnc2c(=O)[nH]c(N)nc21)OCc1ccccc1 (centres unmarked) [ABI-1968],Concentration in vaginal tissue,"[4]; 3% dose, FIG. 116",< 15
same,Tissue penetration,[4]; FIG. 116,substantially smaller degree
same,Tissue concentration,"[4]; up to a 3% dose, Bar F and G in FIG. 116",< 15 ng/mg
CCOC(=O)[C@H](C)N[P@@](=O)(COCCn1cnc2c(OC)nc(N)nc21)OCc1ccccc1.O=C(O)/C=C/C(=O)O [Compound II],pH of solution at 2 hours,"[1]; ES1: pH 3.0, 100 mM citrate buffer, 37° C.",2.85
same,pH of solution at 2 hours,"[1]; ES2: pH 4.5, 50 mM acetate buffer, 37° C.",4.2
same,pH of solution at 2 hours,"[1]; ES3: pH 6.8, 50 mM phosphate buffer, 37° C.",6.47
same,pH of solution at 2 hours,"[1]; ES4: Water, 37° C.",2.87
same,pH of solution at 2 hours,"[1]; ES5: Simulated vaginal fluid (pH adjusted by 0.1N NaOH), 37° C.",5.79
same,Desorp. (%) Cycle 1,[2]; 0% RH,0.03%
same,Desorp. (%) Cycle 2,[2]; 0% RH,0.03%
same,Sorp. (%) Cycle 1,[2]; 0% RH,0.03%
same,Sorp. (%) Cycle 2,[2]; 0% RH,0.03%
same,Desorp. (%) Cycle 1,[2]; 10% RH,0.05%
same,Desorp. (%) Cycle 2,[2]; 10% RH,0.05%
same,Sorp. (%) Cycle 1,[2]; 10% RH,0.04%
same,Sorp. (%) Cycle 2,[2]; 10% RH,0.04%
same,Desorp. (%) Cycle 1,[2]; 20% RH,0.08%
same,Desorp. (%) Cycle 2,[2]; 20% RH,0.07%
same,Sorp. (%) Cycle 1,[2]; 20% RH,0.06%
same,Sorp. (%) Cycle 2,[2]; 20% RH,0.06%
same,Desorp. (%) Cycle 1,[2]; 30% RH,0.10%
same,Desorp. (%) Cycle 2,[2]; 30% RH,0.08%
same,Sorp. (%) Cycle 1,[2]; 30% RH,0.08%
same,Sorp. (%) Cycle 2,[2]; 30% RH,0.07%
same,Desorp. (%) Cycle 1,[2]; 40% RH,0.17%
same,Desorp. (%) Cycle 2,[2]; 40% RH,0.10%
same,Sorp. (%) Cycle 1,[2]; 40% RH,0.10%
same,Sorp. (%) Cycle 2,[2]; 40% RH,0.09%
same,Desorp. (%) Cycle 2,[2]; 50% RH,0.12%
same,Sorp. (%) Cycle 1,[2]; 50% RH,0.12%
same,Desorp. (%) Cycle 2,[2]; 60% RH,0.14%
same,Sorp. (%) Cycle 1,[2]; 60% RH,0.13%
same,Desorp. (%) Cycle 2,[2]; 70% RH,0.18%
same,Sorp. (%) Cycle 1,[2]; 70% RH,0.16%
same,Desorp. (%) Cycle 2,[2]; 80% RH,0.21%
same,Sorp. (%) Cycle 1,[2]; 80% RH,0.19%
same,Desorp. (%) Cycle 2,[2]; 90% RH,0.24%
same,Sorp. (%) Cycle 1,[2]; 90% RH,0.23%
same,Desorp. (%) Cycle 2,[2]; 95% RH,0.24%
same,Sorp. (%) Cycle 1,[2]; 95% RH,0.24%
same,Hygroscopicity,"[2]; DVS at 25° C., in words",slightly hygroscopic
same,XRPD after DVS test,[2]; after DVS 40-0-95-0-40% RH,No form change
same,XRPD after DVS test,"[2]; after humidity cycle 40-0-95-0-40% RH, listed as Compound II Pattern 1, monofumarate",No form change
same,XRPD after DVS test,"[2]; after humidity cycle 40-0-95-0-40% RH, monofumarate",does not change
same,Water uptake,[2],about 0.2%
same,Tissue penetration,[4]; FIG. 116,high tissue penetration
same,Crystal modification after 1 week equilibration at 25° C.,[5]; PS1: IPA,Compound II Pattern 1
same,Crystal modification after 1 week equilibration at 25° C.,[5]; PS2: Heptanes,Compound II Pattern 1
same,Crystal modification after 1 week equilibration at 25° C.,[5]; PS3: Water,Compound II Pattern 1
same,Crystal modification after 1 week equilibration at 25° C.,[5]; PS4: ACN,Compound II Pattern 2
same,Crystal modification after 1 week equilibration at 25° C.,[5]; PS5: MEK,Compound II Pattern 3
same,Crystal modification after 1 week equilibration at 25° C.,[5]; PS6: Acetone,Compound II Pattern 1
same,Crystal modification after 1 week equilibration at 25° C.,"[5]; PS7: IPA/heptanes (3/10, v/v)",Compound II Pattern 1
same,Crystal modification after 1 week equilibration at 25° C.,"[5]; PS8: water/ACN (2.9/97.1, v/v)",Compound II Pattern 2
same,Crystal modification after 1 week equilibration at 25° C.,"[5]; PS9: IPA/MTBE (1/3, v/v)",Compound II Pattern 1
same,Crystal modification after 1 week equilibration at 25° C.,"[5]; PS10: EA/toluene (1/3, v/v)",Compound II Pattern 1
same,Dissociation of the salt during equilibration experiments,"[5]; equilibration in solvents, 1 week, 25° C.",no dissociation was observed
same,Stability after exposure to the three conditions,"[3]; 25° C./92% RH open, 40° C./75% RH open, 60° C. tight container, one week",good physical and chemical stability
same,Bulk (HPLC) Purity,[3]; [7],99.5%
same,Bulk Color,[3]; [7],No change
same,Bulk (HPLC) Purity,[3]; [8],99.4%
same,Bulk Color,[3]; [8],No change
same,Bulk (HPLC) Purity,[3]; [9],99.7%
same,Bulk Color,[3]; [9],No change
same,"HPLC purity, Initial",[3],99.7%
